We go through 16 molecules from patent publication US12486269B2 (Aconcagua Bio, Inc., priority 2024, dated 2025).

In assay [1] the target is T1, COS-7/AMY3 (human calcitonin receptor (CTR) and RAMP3) (Homo sapiens, UniProt O60896+P30988).
T1 construct: expressed in transfected cells; host or cells: COS-7
Description: Amylin Receptor cAMP Assay II. The class given is cell-based. Conditions: values marked **: Amylin Receptor cAMP Assay II; COS-7/AMY3 cells, cAMP dynamic 2 kit, 30 min; read-out: Amylin Receptor cAMP Stimulation Activity: EC50. The procedure, abridged:
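COS-7 cells stably co-expressing human CTR and RAMP3 (AMY3), 2000 cells/well in HBSS with 20 mM HEPES, 0.5 mM IBMX, 0.1% casein, stimulated with compound for 30 min at 37 °C. cAMP measured by HTRF (665/615 nm), activity normalized between vehicle and maximal control.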

Assay [2] addresses T2, human calcitonin receptor (CTR) (Homo sapiens, UniProt P30988).
T2 construct: expressed in transfected cells; host or cells: COS-7 (COS7-human CTR Clone #2)
T2 sequence (P30988 25-474): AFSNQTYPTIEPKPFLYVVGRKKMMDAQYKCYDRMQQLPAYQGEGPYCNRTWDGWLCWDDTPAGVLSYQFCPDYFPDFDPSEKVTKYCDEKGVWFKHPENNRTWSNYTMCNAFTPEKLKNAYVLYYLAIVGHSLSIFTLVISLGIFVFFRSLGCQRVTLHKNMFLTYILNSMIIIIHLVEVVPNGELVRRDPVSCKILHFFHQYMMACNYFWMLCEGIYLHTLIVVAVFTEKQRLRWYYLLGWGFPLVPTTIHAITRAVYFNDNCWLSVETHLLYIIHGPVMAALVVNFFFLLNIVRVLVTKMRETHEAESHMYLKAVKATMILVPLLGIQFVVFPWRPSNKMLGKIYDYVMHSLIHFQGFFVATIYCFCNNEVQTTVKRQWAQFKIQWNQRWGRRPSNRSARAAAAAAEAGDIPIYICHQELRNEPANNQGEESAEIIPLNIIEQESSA
In words: Calcitonin Receptor (CTR) cAMP Assay. In kind it is cell-based. Conditions: COS7-human CTR Clone #2 stable cell line, cAMP dynamic 2 kit, 30 min; read-out: Calcitonin Receptor cAMP Stimulation Activity: EC50. Put shortly:
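COS-7 cells stably expressing human CTR (2000 cells/well) were incubated 30 min at 37 °C with 4-fold serially diluted compound in HBSS/20 mM HEPES/0.5 mM IBMX/0.1% casein. cAMP was detected by HTRF (665/615 nm) after 1 h at RT. % activity was normalised to vehicle and positive controls.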

pEC50: −log10 of the molar value.

T1 sequence (O60896 24-148, one chain of several): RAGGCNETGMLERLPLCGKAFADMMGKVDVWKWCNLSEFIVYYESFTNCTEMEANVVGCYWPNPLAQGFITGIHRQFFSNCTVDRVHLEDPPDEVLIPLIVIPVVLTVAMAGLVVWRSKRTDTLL

Usually pEC50 stands for −log10 of the EC50, conventionally taken in molar units. On to `O=C1c2c(nc(CCc3ccc(F)cc3)c(-c3n[nH]c(=O)o3)c2-c2cc3ccnc(N[C@@H]4CCc5cc(F)c(F)cc54)c3s2)[C@@H]2CCCN12` [Compound 166, 5-((S)-4-(7-(((R)-5,6-difluoro-2,3-dihydro-1H-inden-1-yl)amino)thieno[2,3-c]pyridin-2-yl)-2-(4-fluorophenethyl)-5-oxo-7,8,9,9a-tetrahydro-5H-pyrido[2,3-a]pyrrolizin-3-yl)-1,3,4-oxadiazol-2(3H)-one], for which the figures for the pEC50 in assay [1] and in assay [2] were 8.86 and 10.06, respectively.
For `O=C1c2c(nc(CCc3ccc(F)cc3)c(-c3n[nH]c(=O)o3)c2-c2cc3ccnc(N[C@@H]4CCc5c(F)cc(F)cc54)c3s2)C23CC(CN12)C3` [Compound 279, (R)-5-(4-(7-((4,6-difluoro-2,3-dihydro-1H-inden-1-yl)amino)thieno[2,3-c]pyridin-2-yl)-2-(4-fluorophenethyl)-5-oxo-5,7,8,9-tetrahydro-8,9a-methanopyrido[2,3-a]pyrrolizin-3-yl)-1,3,4-oxadiazol-2(3H)-one], in that order: 9.50 and 10.29.
On the same counts, the results for `COc1cccc2c1CC[C@H]2Nc1nccc2cc(-c3c(-c4n[nH]c(=O)o4)c(CCc4ccc(F)cc4)nc4c3S(=O)(=O)C[C@H]4C(C)C)sc12` [Compound 237, 5-((S)-5-(4-fluorophenethyl)-3-isopropyl-7-(7-(((R)-4-methoxy-2,3-dihydro-1H-inden-1-yl)amino)thieno[2,3-c]pyridin-2-yl)-1,1-dioxido-2,3-dihydrothieno[3,2-b]pyridin-6-yl)-1,3,4-oxadiazol-2(3H)-one] are 7.73 and 9.23.
`COc1cccc2c1CC[C@H]2Nc1nccc2cc(-c3c(-c4n[nH]c(=O)o4)c(CCc4ccc(F)cc4)nc4c3C(=O)N3C[C@H]5C[C@@]43C5)sc12` [Compound 181, (R)-5-(2-(4-fluorophenethyl)-4-(7-((4-methoxy-2,3-dihydro-1H-inden-1-yl)amino)thieno[2,3-c]pyridin-2-yl)-5-oxo-8,9-dihydro-5H,7H-8,9a-methanopyrido[2,3-a]pyrrolizin-3-yl)-1,3,4-oxadiazol-2(3H)-one]: the pEC50 in assay [1] is 8.46; in assay [2], 9.98.
For `COc1cccc2c1CC[C@H]2Nc1nccc2cc(-c3c4c(nc(CCc5ccn6ccnc6c5)c3-c3n[nH]c(=O)o3)[C@@H]3CCCN3C4=O)sc12` [Compound 241, 5-((S)-2-(2-(imidazo[1,2-a]pyridin-7-yl)ethyl)-4-(7-(((R)-4-methoxy-2,3-dihydro-1H-inden-1-yl)amino)thieno[2,3-c]pyridin-2-yl)-5-oxo-7,8,9,9a-tetrahydro-5H-pyrido[2,3-a]pyrrolizin-3-yl)-1,3,4-oxadiazol-2(3H)-one], in that order: 7.47 and 8.76.
On the same counts, the results for `COc1c(Cl)cc2c(c1F)CC[C@H]2Nc1nccc2cc(-c3c4c(nc(CCc5ccc(F)cc5)c3-c3n[nH]c(=O)o3)[C@@H]3CCCN3C4=O)sc12` [Compound 256, 5-[(9aS)-4-[7-[[(1R)-6-chloro-4-fluoro-5-methoxy-indan-1-yl]amino]thieno[2,3-c]pyridin-2-yl]-2-[2-(4-fluorophenyl)ethyl]-5-oxo-7,8,9,9a-tetrahydropyrido[2,3-a]pyrrolizin-3-yl]-3H-1,3,4-oxadiazol-2-one] are 7.89 and 9.48.
For `O=C1c2c(nc(CCc3ccc(F)cc3)c(-c3n[nH]c(=O)o3)c2-c2cc3ccnc(N[C@@H]4CCOc5c(F)cc(F)cc54)c3s2)C23CC(CN12)C3` [Compound 293, (R)-5-(4-(7-((6,8-difluorochroman-4-yl)amino)thieno[2,3-c]pyridin-2-yl)-2-(4-fluorophenethyl)-5-oxo-8,9-dihydro-5H,7H-8,9a-methanopyrido[2,3-a]pyrrolizin-3-yl)-1,3,4-oxadiazol-2(3H)-one], the pEC50 is 8.57 in assay [1] and 10.31 in assay [2].
For `O=C1c2c(nc(CCc3ccc(F)cc3)c(-c3n[nH]c(=O)o3)c2-c2cc3ccnc(N[C@@H]4CCc5cc(Cl)cnc54)c3s2)C23CC(CN12)C3` [Compound 266, (R)-5-(4-(7-((3-chloro-6,7-dihydro-5H-cyclopenta[b]pyridin-7-yl)amino)thieno[2,3-c]pyridin-2-yl)-2-(4-fluorophenethyl)-5-oxo-8,9-dihydro-5H,7H-8,9a-methanopyrido[2,3-a]pyrrolizin-3-yl)-1,3,4-oxadiazol-2(3H)-one], in that order: 6.74 and 8.56.
For `COc1cccc2c1CC[C@H]2Nc1nccc2cc(-c3c4c(nc(C[C@H]5COc6cc(F)ccc65)c3-c3n[nH]c(=O)o3)[C@@H]3CCCN3C4=O)sc12` [Compound 217, 5-((S)-2-(((R)-6-fluoro-2,3-dihydrobenzofuran-3-yl)methyl)-4-(7-(((R)-4-methoxy-2,3-dihydro-1H-inden-1-yl)amino)thieno[2,3-c]pyridin-2-yl)-5-oxo-7,8,9,9a-tetrahydro-5H-pyrido[2,3-a]pyrrolizin-3-yl)-1,3,4-oxadiazol-2(3H)-one], in that order: 7.32 and 9.15.
For `C[C@@H](Nc1nccc2cc(-c3c4c(nc(CCc5ccc(F)cc5)c3-c3n[nH]c(=O)o3)[C@@H]3CCCN3C4=O)sc12)c1ccc(F)cc1F` [Compound 228, 5-((S)-4-(7-(((R)-1-(2,4-difluorophenyl)ethyl)amino)thieno[2,3-c]pyridin-2-yl)-2-(4-fluorophenethyl)-5-oxo-7,8,9,9a-tetrahydro-5H-pyrido[2,3-a]pyrrolizin-3-yl)-1,3,4-oxadiazol-2(3H)-one], in that order: 5.52 and 7.59.
For `CN(Cc1ccc(F)c(F)c1)C(=O)c1ccc(-c2c3c(nc(CCc4ccc(F)cc4)c2-c2noc(=O)[nH]2)[C@@H]2CCCN2C3=O)s1` [Compound 115], the results for the negative logarithm of the EC50 (pEC50) in assay [1] and in assay [2] were 6.25 and 7.54, respectively.
For `CC(c1ccc(C#N)cn1)n1c(=O)oc2cc(-c3c4c(nc(CCc5ccc(F)cc5)c3-c3n[nH]c(=O)o3)[C@@H]3CCCN3C4=O)ccc21` (stereo partly drawn) [Compound 160, 6-[1-[6-[(9aS)-2-[2-(4-fluorophenyl)ethyl]-5-oxo-3-(2-oxo-3H-1,3,4-oxadiazol-5-yl)-7,8,9,9a-tetrahydropyrido[2,3-a]pyrrolizin-4-yl]-2-oxo-1,3-benzoxazol-3-yl]ethyl]pyridine-3-carbonitrile], in that order: 7.91 and 9.14.
For `O=C1c2c(nc(CCc3ccc(F)cc3)c(-c3n[nH]c(=O)o3)c2-c2cnc3c(ccn3Cc3ncc(F)cc3F)c2)[C@@H]2CCCN12` [Compound 210, (S)-5-(4-(1-((3,5-difluoropyridin-2-yl)methyl)-1H-pyrrolo[2,3-b]pyridin-5-yl)-2-(4-fluorophenethyl)-5-oxo-7,8,9,9a-tetrahydro-5H-pyrido[2,3-a]pyrrolizin-3-yl)-1,3,4-oxadiazol-2(3H)-one], in that order: 6.33 and 7.64.
For `O=C1c2c(nc(CCC3CCOCC3)c(-c3cc(=O)[nH]o3)c2-c2ccc3c(ccn3Cc3ccc(F)c(F)c3)c2)[C@@H]2CCCN12` [Compound 201, (S)-5-(4-(1-(3,4-difluorobenzyl)-1H-indol-5-yl)-5-oxo-2-(2-(tetrahydro-2H-pyran-4-yl)ethyl)-7,8,9,9a-tetrahydro-5H-pyrido[2,3-a]pyrrolizin-3-yl)isoxazol-3(2H)-one], in that order: 5.86 and 7.71.
Turning to `COc1c(F)ccc2c1CC[C@H]2Nc1ncnc2sc(-c3c4c(nc(CCc5ccc(F)cc5)c3-c3n[nH]c(=O)o3)C35CC(CN3C4=O)C5)cc12` [Compound 270, (R)-5-(4-(4-((5-fluoro-4-methoxy-2,3-dihydro-1H-inden-1-yl)amino)thieno[2,3-d]pyrimidin-6-yl)-2-(4-fluorophenethyl)-5-oxo-8,9-dihydro-5H,7H-8,9a-methanopyrido[2,3-a]pyrrolizin-3-yl)-1,3,4-oxadiazol-2(3H)-one], the pEC50 in assay [1] was 8.80; in assay [2], 9.83.
On the same counts, the results for `Cc1cc2cc(-c3c4c(nc(CCc5ccc(F)cc5)c3-c3n[nH]c(=O)o3)C35CC(CN3C4=O)C5)sc2c(N[C@@H]2CCOc3c(F)cc(F)cc32)n1` [Compound 295, (R)-5-(4-(7-((6,8-difluorochroman-4-yl)amino)-5-methylthieno[2,3-c]pyridin-2-yl)-2-(4-fluorophenethyl)-5-oxo-8,9-dihydro-5H,7H-8,9a-methanopyrido[2,3-a]pyrrolizin-3-yl)-1,3,4-oxadiazol-2(3H)-one] are 8.92 and 10.54.
